Laboratory results reported in patent publication US20190343908A1, “Therapeutic Combination for the Treatment of Cancer” (Nerium Biotechnology Inc., priority 2011, published 2019).
“And” between values parts separate entries of the source, which are not always exact repeats. Equal entries are not always repeated.

How the values were obtained:
[1] = tested on: 22Rv1 (human prostate cancer); assay: Sulforhodamine B (SRB) viability assay, 22Rv1; type: cell-based
Description: (§1) Three different viability assays were chosen to complement each other and yielded results dependent on concentration and cell line: the Methyl Tetrazolium dye assay, the Sulforhodamine B fluorescent dye assay, and the Crystal Violet dye assay.
(§2) The Sulforhodamine B and Crystal Violet assays provide information about protein and were used to complement the Methyl-Tetrazolium dye assay. […] It is used for the quantification of cellular proteins of cultured cells. The assay using Crystal Violet, a dye that binds electrostatically to proteins and stains DNA, provides a reliable, simple assay for measuring viability of cells.
(§3) The Methyl Tetrazolium, Sulforhodamine B, and Crystal Violet assays were used to assess cell viabilities. The incubation times were 24 hours, 48 hours, and 72 hours. The Nerium oleander extract Anvirzel™ (a hot water extract of oleander obtained from Salud Integral, Honduras) was tested in concentrations ranging from 0.01 ng/mL to 10 ng/mL.
(§4) Cells were detached by trypsinization (Trypsin-0.25% EDTA, Invitrogen, 25200-072) during the logarithmic phase of culture growth and plated in 96-well plates (18.000 cells/well) (Corning, Costar 359) in a final volume of 200 μl of medium per well. […] The absorbance was measured after 24 hours, 48 hours, and 72 hours of incubation.
(§5) For the Sulforhodamine B assay, 96-well plates were fixed by 10% trichloroacetic acid (Fluka, 91228) and were incubated at 4° C. for 1 hour. Afterwards, plates were rinsed with water and cells were stained with 0.4% Sulforhodamine B (Sigma, 341738), dissolved in 1% acetic acid (Carlo Ebra, 401422) for 15 minutes at room temperature (RT). The unbound stain was washed twice with 1% acetic acid. Finally, 10 mM Tris Buffer pH 10.5 (Sigma, T6791) was added to dissolve the dye.
(§6) The optical density of each plate was measured on a μQuant spectrophotometer and the data were analyzed with Gen5 software (μQuant Biomolecular Spectrophotometer MQX200 and Gen5™ Microplate Data Collection & Analysis software, BioTek® Instruments. Inc, April 2008). Absorbance was measured at 570 nm for all assays and a second wavelength was measured in order to subtract noise. For the Methyl-Tetrazolium assay this second wavelength was 630 nm and for the Sulforhodamine B and Crystal Violet assays it was 690 nm.

[2] = tested on: HCT-116 (colorectal cancer); assay: Crystal Violet viability assay, HCT-116; type: cell-based, human; set-up: key: absorbance at 570 nm (crystal violet), background wavelength subtracted; conditions: for Average CVE: HCT-116
Description: as §1, §2, §3, §4
For the Crystal Violet assay, the medium was removed from the 96-well plates, the plates rinsed with PBS (Sigma, P3813) and then the cells were […] by the addition of 10% formalin (MERCK, 1.04003.2500) for 20 minutes at RT. Formalin was removed and 0.25% aqueous crystal violet (Sigma, HT901), dissolved in water, was added for 10 minutes at RT. Unbound Crystal Violet was rinsed by washing with water and finally 33% acetic acid was added to dissolve the dye.
as §6

[3] = tested on: PANC-1 pancreatic cancer cell line; assay: Sulforhodamine B viability assay, PANC-1; type: cell-based, human; set-up: key to Average SRB: absorbance (optical density) at 570 nm, second wavelength subtracted; conditions: for ABSORBANCE: 0.1 μg/mL cisplatin; for SRB 24 h / SRB 48 h / SRB 72 h: Run 1 average
Description: as §1
as §2, with “of cells. […]” for “of cells.”
as §4, §5, §6

Structure (SMILES): N.N.[Cl][Pt][Cl] [cisplatin]
- SRB 24 h Average ([1]; 22Rv1 Run 1, 0.1 μg/ml CDDP): 1.847
- SRB 48 h Average ([1]; 22Rv1 Run 1, 0.1 μg/ml CDDP): 1.685
- SRB 72 h Average ([1]; 22Rv1 Run 1, 0.1 μg/ml CDDP): 2.018
- SRB 24 h Average ([1]; 22Rv1 Run 1, 1 μg/ml CDDP): 1.943
- SRB 48 h Average ([1]; 22Rv1 Run 1, 1 μg/ml CDDP): 1.549
- SRB 72 h Average ([1]; 22Rv1 Run 1, 1 μg/ml CDDP): 1.56
- SRB 24 h Average ([1]; 22Rv1 Run 1, 10 μg/ml CDDP): 1.744
- SRB 48 h Average ([1]; 22Rv1 Run 1, 10 μg/ml CDDP): 1.217
- SRB 72 h Average ([1]; 22Rv1 Run 1, 10 μg/ml CDDP): 1.141
- SRB 24 h Average ([1]; 22Rv1 Run 1, 100 μg/ml CDDP): 1.878
- SRB 48 h Average ([1]; 22Rv1 Run 1, 100 μg/ml CDDP): 1.121
- SRB 72 h Average ([1]; 22Rv1 Run 1, 100 μg/ml CDDP): 1.204
- SRB 24 h Average ([1]; 22Rv1 Run 2, 0.1 μg/ml CDDP): 1.727
- SRB 48 h Average ([1]; 22Rv1 Run 2, 0.1 μg/ml CDDP): 2.139
- SRB 72 h Average ([1]; 22Rv1 Run 2, 0.1 μg/ml CDDP): 2.392
- SRB 24 h Average ([1]; 22Rv1 Run 2, 1 μg/ml CDDP): 1.647
- SRB 48 h Average ([1]; 22Rv1 Run 2, 1 μg/ml CDDP): 1.824
- SRB 72 h Average ([1]; 22Rv1 Run 2, 1 μg/ml CDDP): 1.395
- SRB 24 h Average ([1]; 22Rv1 Run 2, 10 μg/ml CDDP): 1.49
- SRB 48 h Average ([1]; 22Rv1 Run 2, 10 μg/ml CDDP): 1.46
- SRB 72 h Average ([1]; 22Rv1 Run 2, 10 μg/ml CDDP): 1.606
- SRB 24 h Average ([1]; 22Rv1 Run 2, 100 μg/ml CDDP): 1.495
- SRB 48 h Average ([1]; 22Rv1 Run 2, 100 μg/ml CDDP): 1.621
- SRB 72 h Average ([1]; 22Rv1 Run 2, 100 μg/ml CDDP): 1.247
- Average absorbance, SRB 24 h ([1]; 22Rv1 Run 3, 0.1 μg/ml CDDP): 1.352 and 0.85
- CVE Average ([2]; HCT-116, Run 3, 24 h, 0.1 μg/ml CDDP): 0.371
- CVE Average ([2]; HCT-116, Run 3, 24 h, 1 μg/ml CDDP): 0.267
- CVE Average ([2]; HCT-116, Run 3, 24 h, 10 μg/ml CDDP): 0.393
- CVE Average ([2]; HCT-116, Run 3, 24 h, 100 μg/ml CDDP): 0.256
- CVE Average ([2]; HCT-116, Run 3, 48 h, 0.1 μg/ml CDDP): 1.153
- CVE Average ([2]; HCT-116, Run 3, 48 h, 1 μg/ml CDDP): 0.687
- CVE Average ([2]; HCT-116, Run 3, 48 h, 10 μg/ml CDDP): 0.993
- CVE Average ([2]; HCT-116, Run 3, 48 h, 100 μg/ml CDDP): 0.359
- CVE Average ([2]; HCT-116, Run 3, 72 h, 0.1 μg/ml CDDP): 1.078
- CVE Average ([2]; HCT-116, Run 3, 72 h, 1 μg/ml CDDP): 0.235
- CVE Average ([2]; HCT-116, Run 3, 72 h, 10 μg/ml CDDP): 0.476
- CVE Average ([2]; HCT-116, Run 3, 72 h, 100 μg/ml CDDP): 0.214
- Average CVE ([2]; Run 1, 24 h, 0.1 μg/ml CDDP): 0.569
- Average CVE ([2]; Run 1, 24 h, 1 μg/ml CDDP): 0.563
- Average CVE ([2]; Run 1, 24 h, 10 μg/ml CDDP): 1.173
- Average CVE ([2]; Run 1, 24 h, 100 μg/ml CDDP): 0.344
- Average CVE ([2]; Run 1, 48 h, 0.1 μg/ml CDDP): 0.984
- Average CVE ([2]; Run 1, 48 h, 1 μg/ml CDDP): 0.624
- Average CVE ([2]; Run 1, 48 h, 10 μg/ml CDDP): 0.488
- Average CVE ([2]; Run 1, 48 h, 100 μg/ml CDDP): 0.356
- Average CVE ([2]; Run 1, 72 h, 0.1 μg/ml CDDP): 1.352
- Average CVE ([2]; Run 1, 72 h, 1 μg/ml CDDP): 0.308
- Average CVE ([2]; Run 1, 72 h, 10 μg/ml CDDP): 0.501
- Average CVE ([2]; Run 1, 72 h, 100 μg/ml CDDP): 0.51
- Average CVE ([2]; Run 2, 24 h, 0.1 μg/ml CDDP): 0.52
- Average CVE ([2]; Run 2, 24 h, 1 μg/ml CDDP): 0.302
- Average CVE ([2]; Run 2, 24 h, 10 μg/ml CDDP): 0.477
- Average CVE ([2]; Run 2, 24 h, 100 μg/ml CDDP): 0.303
- Average CVE ([2]; Run 2, 48 h, 0.1 μg/ml CDDP): 0.971
- Average CVE ([2]; Run 2, 48 h, 1 μg/ml CDDP): 0.425
- Average CVE ([2]; Run 2, 48 h, 10 μg/ml CDDP): 0.608
- Average CVE ([2]; Run 2, 48 h, 100 μg/ml CDDP): 0.529
- Average CVE ([2]; Run 2, 72 h, 0.1 μg/ml CDDP): 1.187
- Average CVE ([2]; Run 2, 72 h, 1 μg/ml CDDP): 0.551
- Average CVE ([2]; Run 2, 72 h, 10 μg/ml CDDP): 0.435
- Average CVE ([2]; Run 2, 72 h, 100 μg/ml CDDP): 0.492
- ABSORBANCE ([3]; PANC-1, 48 h): 1.861
- ABSORBANCE ([3]; PANC-1, 72 h): 2.536
- Average SRB ([3]; PANC-1, Run 2, 24 h, 0.1 μg/ml CDDP): 1.924
- Average SRB ([3]; PANC-1, Run 2, 24 h, 1 μg/ml CDDP): 2.391
- Average SRB ([3]; PANC-1, Run 2, 24 h, 10 μg/ml CDDP): 2.075
- Average SRB ([3]; PANC-1, Run 2, 24 h, 100 μg/ml CDDP): 1.821
- Average SRB ([3]; PANC-1, Run 2, 48 h, 0.1 μg/ml CDDP): 1.505
- Average SRB ([3]; PANC-1, Run 2, 48 h, 1 μg/ml CDDP): 1.549
- Average SRB ([3]; PANC-1, Run 2, 48 h, 10 μg/ml CDDP): 1.106
- Average SRB ([3]; PANC-1, Run 2, 48 h, 100 μg/ml CDDP): 0.752
- Average SRB ([3]; PANC-1, Run 2, 72 h, 0.1 μg/ml CDDP): 2.471
- Average SRB ([3]; PANC-1, Run 2, 72 h, 1 μg/ml CDDP): 2.171
- Average SRB ([3]; PANC-1, Run 2, 72 h, 10 μg/ml CDDP): 1.815
- Average SRB ([3]; PANC-1, Run 2, 72 h, 100 μg/ml CDDP): 1.374
- Average SRB ([3]; PANC-1, Run 3, 24 h, 0.1 μg/ml CDDP): 1.881
- Average SRB ([3]; PANC-1, Run 3, 24 h, 1 μg/ml CDDP): 2.008
- Average SRB ([3]; PANC-1, Run 3, 24 h, 10 μg/ml CDDP): 1.74
- Average SRB ([3]; PANC-1, Run 3, 24 h, 100 μg/ml CDDP): 2.087
- Average SRB ([3]; PANC-1, Run 3, 48 h, 0.1 μg/ml CDDP): 1.861
- Average SRB ([3]; PANC-1, Run 3, 48 h, 1 μg/ml CDDP): 1.165
- Average SRB ([3]; PANC-1, Run 3, 48 h, 10 μg/ml CDDP): 0.954
- Average SRB ([3]; PANC-1, Run 3, 48 h, 100 μg/ml CDDP): 0.858
- Average SRB ([3]; PANC-1, Run 3, 72 h, 0.1 μg/ml CDDP): 2.536
- Average SRB ([3]; PANC-1, Run 3, 72 h, 1 μg/ml CDDP): 2.281
- Average SRB ([3]; PANC-1, Run 3, 72 h, 10 μg/ml CDDP): 2.07
- Average SRB ([3]; PANC-1, Run 3, 72 h, 100 μg/ml CDDP): 1.584
- SRB 24 h ([3]; 0.1 μg/ml CDDP): 1.369
- SRB 48 h ([3]; 0.1 μg/ml CDDP): 2.223
- SRB 72 h ([3]; 0.1 μg/ml CDDP): 2.191
- SRB 24 h ([3]; 1 μg/ml CDDP): 1.748
- SRB 48 h ([3]; 1 μg/ml CDDP): 1.748
- SRB 72 h ([3]; 1 μg/ml CDDP): 1.47
- SRB 24 h ([3]; 10 μg/ml CDDP): 1.597
- SRB 48 h ([3]; 10 μg/ml CDDP): 1.339
- SRB 72 h ([3]; 10 μg/ml CDDP): 1.435
- SRB 24 h ([3]; 100 μg/ml CDDP): 1.993
- SRB 48 h ([3]; 100 μg/ml CDDP): 1.53
- SRB 72 h ([3]; 100 μg/ml CDDP): 1.433
